pIC50: −log10 of the molar value.
Key:
[1] = tested on: HeLa; experiment: Concentration required to inhibit the growth of HeLa S3 cells after 1 hour.; type: functional, cell-based; details: Homo sapiens
[2] = tested on: HeLa; experiment: Concentration required to inhibit the growth of HeLa S3 cells after 72 hours.; type: functional, cell-based; details: Homo sapiens
[3] = tested on: Sarcoma-180; experiment: Antitumor activity expressed as T/C at an intravenous dose of 1.0 mg/kg in mice implanted subcutaneously with murine sarcoma 180 cells.; type: functional, Mus musculus
[4] = tested on: Sarcoma-180; experiment: Antitumor activity expressed as T/C at an intravenous dose of 0.13 mg/kg in mice implanted subcutaneously with murine sarcoma 180 cells.; type: functional, Mus musculus
[5] = tested on: Sarcoma-180; experiment: Antitumor activity expressed as T/C at an intravenous dose of 8.0 mg/kg in mice implanted subcutaneously with murine sarcoma 180 cells.; type: functional, Mus musculus

Row | SMILES | pIC50 [1] | pIC50 [2] | T/C [3] | T/C [4] | T/C [5]
1 | COC(=O)c1c(C)[nH]c2c1[C@@]13C[C@@H]1Cn1c(O)c4nc5c(OC)c(OC)c(OC)cc5c-4c(c13)C2=O | 7.44 | 8.18 |  |  | 
2 | COC(=O)c1c2c(n(C)c1C)C(=O)C=C1N(C(=O)c3cc4cc(OC)c(OC)c(OC)c4[nH]3)C[C@H]3C[C@]123 | 8.85 | 10.16 | 0.22 |  | 
3 | COC(=O)c1c(C)[nH]c2c1[C@@]13C[C@@H]1CN(C(=O)c1cc4cc(OC)c(OC)c(OC)c4[nH]1)C3=CC2=O |  |  |  | 0.18 | 
4 | COC(=O)c1c2c(n(C)c1C)C(=O)C=C1N(C(=O)c3cc4cc(OC)c(OC)c(OC)c4n3C)C[C@H]3C[C@]123 | 6.05 | 6.64 |  |  | 0.96

Source: ChEMBL document CHEMBL1129161, “Studies on the active metabolite (DU-86) of KW-2189, a novel derivative of duocarmycin” (Bioorg Med Chem Lett, 1996)
